Results: US20230083973A1, “SUBSTITUTED CYCLOPROPYL-2,2'-BIP[…], ANALOGUES THEREOF, AND METHODS USING SAME” (priority 2019, published 2023)
Read-outs that look alike come from different tables or passages of the source.

System: HBsAg
Assay: HBsAg assay: inhibition of HBsAg in HepG2.2.15 cells (chemiluminescence immunoassay of supernatant)
Type: cell-based, hepatitis B virus
Conditions: HBsAg in supernatant at day 6 after exposure to compound, 0.5% DMSO
Procedure: Inhibition of HBsAg was determined in HepG2.2.15 cells. Cells were maintained in culture medium containing 10% fetal calf serum, […], Glutamine, penicillin/streptomycin. Cells were seeded in 96-well collagen-coated plate at a density of 30,000 cells/well. Serially diluted compounds were added to cells next day at the final DMSO concentration of 0.5%. Cells were incubated with compounds for 2-3 days, after which medium was removed. Fresh medium containing compounds was added to cells for additional 3-4 days. At day 6 after exposure of compounds, supernatant was collected, the HBsAg immunoassay (microplate-based chemiluminescence immunoassay kits, CLIA, Autobio Diagnosics Co., Zhengzhou, China, Catalog # CL0310-2) was used to determine the level of HBsAg according to manufactory instruction. Dose-response curves were generated and the EC50 value (effective concentrations that achieved 50% inhibitory effect) were determined using XLfit software. In addition, cells were seeded at a density of 5,000 cells/well for determination of cell viability in the presence and absence of compounds by using CellTiter-Glo reagent (Promega).
Table 1 illustrates EC50 values obtained by the HBsAg assay for selected compounds.

[1] = read-out: sAg EC50, HepG2.2.15 cells
[2] = Hepatitis B virus, HepG2.2.15, 144 h, read-out: sAg EC50, HepG2.2.15 cells

SMILES	EC50 [1] [nM]	EC50 [2] [nM]
Fc1cc(C2CC2c2cnc(-c3ncccn3)nc2)cc(N2CCCC2)c1Cl (single isomer, unassigned) [Example 91, trans-5-(2-(4-Chloro-3-fluoro-5-(pyrrolidin-1-yl)phenyl)cyclopropyl)-2,2′-bipyrimidine]	14	
O[C@@H]1CCN(c2cc(C3CC3c3cnc(-c4ncccn4)nc3)cc(Cl)c2F)C1 (single isomer, unassigned) [Example 126]		120
COc1cc(C2CC2c2cnc(-c3ncccn3)nc2C(C)C)ccc1F (single isomer, unassigned) [Example 75, trans-5-(2-(4-Fluoro-3-methoxyphenyl)cyclopropyl)-4-isopropyl-2,2′-bipyrimidine]	2000	
COc1c(Cl)ccc(C2CC2c2cnc(-c3ncccn3)nc2)c1C (single isomer, unassigned) [Example 72, trans-5-(2-(4-Chloro-3-methoxy-2-methylphenyl)cyclopropyl)-2,2′-bipyrimidine]	89	
COC1CN(c2cc([C@@H]3C[C@H]3c3cnc(-c4ncccn4)nc3)cc(F)c2F)C1 (single isomer, unassigned) [Example 123, trans-5-(2-(3,4-Difluoro-5-(3-methoxyazetidin-1-yl)phenyl)cyclopropyl)-2,2′-bipyrimidine]	12	
Fc1cc(C2CC2c2cnc(-c3ncccn3)nc2)cc(OC2CCCC2)c1F (single isomer, unassigned) [Example 245, trans-5-(2-(3-(Cyclopentyloxy)-4,5-difluorophenyl)cyclopropyl)-2,2′-bipyrimidine]	5000	
COc1cc(C2CN(c3cc([C@@H]4C[C@H]4c4cnc(-c5ncccn5)nc4)cc(F)c3F)C2)ccc1F (relative stereo) [Example 215, trans-5-(2-(3,4-Difluoro-5-(3-(4-fluoro-3-methoxyphenyl)azetidin-1-yl)phenyl)cyclopropyl)-2,2′-bipyrimidine]		70
O=C1CCCN1c1cc(C2CC2c2cnc(-c3ncccn3)nc2)ccc1F (single isomer, unassigned) [Example 198, trans-1-(5-(2-([2,2′-Bipyrimidin]-5-yl)cyclopropyl)-2-fluorophenyl)pyrrolidin-2-one]	430	
COCCCn1ncc2c([C@@H]3C[C@H]3c3cnc(-c4ncccn4)nc3)cc(F)c(F)c21 (relative stereo) [Example 264, trans-4-(2-([2,2′-Bipyrimidin]-5-yl)cyclopropyl)-6,7-difluoro-1-(3-methoxypropyl)-1H-indazole]		4
Fc1ccc(C2CC2c2cnc(-c3ncccn3)nc2)cc1OCC1CC1 (single isomer, unassigned) [Example 25, trans-5-(2-(3-(Cyclopropylmethoxy)-4-fluorophenyl)cyclopropyl)-2,2′-bipyrimidine]	270	
CNC(=O)c1cc(C2CC2c2cnc(-c3ncccn3)nc2)ccc1Cl (single isomer, unassigned) [Example 201, trans-5-(2-([2,2′-Bipyrimidin]-5-yl)cyclopropyl)-2-chloro-N-methylbenzamide]	9000	
Fc1cc(C2CC2c2cnc(-c3ncccn3)nc2)cc(O[C@@H]2CCOC2)c1F (single isomer, unassigned) [Example 247]	76	
CS(=O)(=O)N1CCN(c2cc(C3CC3c3cnc(-c4ncccn4)nc3)ccc2F)CC1 (single isomer, unassigned) [Example 42, trans-5-(2-(4-Fluoro-3-(4-(methylsulfonyl)piperazin-1-yl)phenyl)cyclopropyl)-2,2′-bipyrimidine]	220	
COc1cc(OC(F)(F)F)cc([C@@H]2C[C@H]2c2cnc(-c3ncccn3)nc2)c1 (relative stereo) [Example 164, trans-5-(2-(3-Methoxy-5-(trifluoromethoxy)phenyl)cyclopropyl)-2,2′-bipyrimidine]		480
OC1CN(c2cc(C3CC3c3cnc(-c4ncccn4)nc3)ccc2F)C1 (single isomer, unassigned) [Example 54, trans-1-(5-(2-([2,2′-Bipyrimidin]-5-yl)cyclopropyl)-2-fluorophenyl)azetidin-3-ol]	220	
CO[C@H]1CCN(c2cc(C3CC3c3cnc(-c4ncccn4)nc3)ccc2F)C1 (single isomer, unassigned) [Example 68]	85	
COc1ccc(C2CC2c2cnc(-c3ncccn3)nc2)cc1OC (single isomer, unassigned) [Example 31, trans-5-(2-(3,4-Dimethoxyphenyl)cyclopropyl)-2,2′-bipyrimidine]		330

SMILES	EC50 [1] [nM]	EC50 [2] [nM]
COCCOc1cc(C2CC2c2cnc(-c3ncccn3)nc2)ccc1F (single isomer, unassigned) [Example 21, trans-5-(2-(4-Fluoro-3-(2-methoxyethoxy)phenyl)cyclopropyl)-2,2′-bipyrimidine]	490	
COc1cc(C2CC2c2cnc(-c3ncccn3)nc2C(C)C)ccc1F (single isomer, unassigned) [Example 74, trans-5-(2-(4-Fluoro-3-methoxyphenyl)cyclopropyl)-4-isopropyl-2,2′-bipyrimidine]	10000	
Fc1cc(C2CC2c2cnc(-c3ncccn3)nc2)cc(N2CC(c3ccccc3)C2)c1F (single isomer, unassigned) [Example 256, trans-5-(2-(3,4-Difluoro-5-(3-phenylazetidin-1-yl)phenyl)cyclopropyl)-2,2′-bipyrimidine]	28	
O=C1CCCN1c1cc(C2CC2c2cnc(-c3ncccn3)nc2)ccc1F (single isomer, unassigned) [Example 197, trans-1-(5-(2-([2,2′-Bipyrimidin]-5-yl)cyclopropyl)-2-fluorophenyl)pyrrolidin-2-one]	3000	
Fc1cc(C2CC2c2cnc(-c3ncccn3)nc2)cc(F)c1F (single isomer, unassigned) [Example 161, trans-5-(2-(3,4,5-Trifluorophenyl)cyclopropyl)-2,2′-bipyrimidine]	10000	
COCCCn1ncc2c(C3CC3c3cnc(-c4ncccn4)nc3)cc(F)c(F)c21 (single isomer, unassigned) [Example 265, trans-4-(2-([2,2′-Bipyrimidin]-5-yl)cyclopropyl)-6,7-difluoro-1-(3-methoxypropyl)-1H-indazole]	61	
CCCc1cc(F)c(OC)cc1C1CC1c1cnc(-c2ncccn2)nc1 (single isomer, unassigned) [Example 37, trans-5-(2-(4-Fluoro-5-methoxy-2-propylphenyl)cyclopropyl)-2,2′-bipyrimidine]	2000	
CO[C@@H]1CCN(c2cc(C3CC3c3cnc(-c4ncccn4)nc3)cc(F)c2F)C1 (single isomer, unassigned) [Example 97]	14	
CC(=O)Nc1cc(C2CC2c2cnc(-c3ncccn3)nc2)ccc1Cl (single isomer, unassigned) [Example 206, trans-N-(5-(2-([2,2′-Bipyrimidin]-5-yl)cyclopropyl)-2-chlorophenyl)acetamide]	820	
COc1cc(C2CC2c2cnc(-c3ncccn3)nc2)c(-c2ccccc2)cc1Cl (single isomer, unassigned) [Example 158, trans-5-(2-(5-Chloro-4-methoxy-[1,1′-biphenyl]-2-yl)cyclopropyl)-2,2′-bipyrimidine]	3000	
COc1cnn(-c2cc(C3CC3c3cnc(-c4ncccn4)nc3)cc(F)c2F)c1 (single isomer, unassigned) [Example 251, trans-5-(2-(3,4-Difluoro-5-(4-methoxy-1H-pyrazol-1-yl)phenyl)cyclopropyl)-2,2′-bipyrimidine]	41	
COCCCn1ncc2c(C3CC3c3cnc(-c4ncccn4)nc3)cc(F)c(F)c21 (single isomer, unassigned) [Example 266, trans-4-(2-([2,2′-Bipyrimidin]-5-yl)cyclopropyl)-6,7-difluoro-1-(3-methoxypropyl)-1H-indazole]	2	
Fc1cc(C2CC2c2cnc(-c3ncccn3)nc2)cc(N2CCCC2)c1F (single isomer, unassigned) [Example 92, trans-5-(2-(3,4-Difluoro-5-(pyrrolidin-1-yl)phenyl)cyclopropyl)-2,2′-bipyrimidine]		24
Fc1cc(C2CC2c2cnc(-c3ncccn3)nc2)cc(N2CCC3(COC3)C2)c1F (single isomer, unassigned) [Example 222, trans-6-(5-(2-([2,2′-Bipyrimidin]-5-yl)cyclopropyl)-2,3-difluorophenyl)-2-oxa-6-azaspiro[3.4]octane]	190	
COc1cc(C2CC2c2cnc(-c3ncccn3)nc2C2CCCCC2)ccc1F (single isomer, unassigned) [Example 78, trans-4-Cyclohexyl-5-(2-(4-fluoro-3-methoxyphenyl)cyclopropyl)-2,2′-bipyrimidine]	11000	
Fc1cn(-c2cc(C3CC3c3cnc(-c4ncccn4)nc3)cc(F)c2F)cc1F (single isomer, unassigned) [Example 257, trans-5-(2-(3-(3,4-Difluoro-1H-pyrrol-1-yl)-4,5-difluorophenyl)cyclopropyl)-2,2′-bipyrimidine]	140	
COc1cc(F)ccc1C1CC1c1cnc(-c2ncccn2)nc1 (single isomer, unassigned) [Example 8, trans-5-(2-(4-Fluoro-2-methoxyphenyl)cyclopropyl)-2,2′-bipyrimidine]	450	
